Patent US20220395553A1, “CXCR4 ANTAGONIST PEPTIDES” (COHBAR, INC., priority 2019, published 2022)
Square brackets hold non-standard residues; d marks the D form. Peptide text beside a SMILES is read from it.

Assays:
[1] = system: CXCR4/CXCL12 induced p-MEK; test: CXCR4/CXCL12 induced p-MEK in Jurkat cells (ELISA); format: cell-based, human; details: 5 nM CXCL12, 5 min
Procedure, shortened: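 Jurkat cells in RPMI+GlutaMax containing 10% FBS and 1% penicillin/streptomycin, fresh or conditioned, were resuspended at 2×10^6 cells/ml and […] aliquots placed in tubes. After a 5 min stimulation they were pelleted, rinsed with HBSS and lysed with PMSF and protease/phosphatase inhibitors. Phospho-MEK1 (Ser217/221) was quantified by sandwich ELISA with absorbance read at 450 nm.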

[2] = target: T1, human CXCR4 (Homo sapiens, UniProt P61073); test: IC50 for CXCR4/CXCL12 ligand binding, HTRF format (Example 24); parameters: host or cells: HEK293 (Tag-lite CXCR4 cells, frozen aliquots, transient expression)
Description: Peptides were initially prepared as 1 mM stock in H2O. […] Following the manufacture's protocol, a frozen aliquot of Tag-lite CXCR4 cells was thawed and immediately seeded onto 384-well plates in TLB. […] The plates were covered in aluminum foil and left at room temperature for 3 hours. Following the 3 hour incubation period, the plates were removed from the incubator and fluorescence measured using a Cytation 1 plate reader using a HTRF filter cube ([…]; BioTek; Winooski, Vt.).

[3] = target: T1, human CXCR4; test: IC50 for inhibition of CXCR4 activation, β-Arrestin recruitment (Example 22); format: cell-based; parameters: host or cells: C2C12 (mouse myoblast) CXCR4 β-Arrestin PathHunter cell line
Procedure, shortened: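 C2C12 cells co-expressing ProLink-tagged human CXCR4 and Enzyme Acceptor-tagged β-arrestin (PathHunter). Peptides tested in 10-point, 3-fold dilutions from 1 μM (1 μM–0.05 nM). Recruitment read by chemiluminescent enzyme-fragment complementation after 90 min incubation.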

[4] = system: Jurkat cells; test: CXCL12 mediated cell migration, Jurkat cells; format: cell-based, human; details: 1.1 μM test article, 100 ng/ml CXCL12, 1 hour
Description: The assay was performed following a protocol similar to that described by Peng, et al., Mol Cancer Ther., 14480-90 (2015), incorporated herein by reference. Peptides were initially prepared as 1 mM stock in H2O and tested at a final concentration of 1.1 μM. […] Jurkat cells were resuspended in serum free media (RPMI+GlutaMax; Gibco/Thermo Fisher Scientific; Gaithersburg, Md.) containing 0.5% bovine serum albumin at density of 5×10^6 cells/ml. […] Cells (250,000 cells in 50 μl) supplemented with the appropriate treatments were seeded on to the upper chamber of a 96-well 5 μm HTS Transwell filter insert (Corning/Costar; Tewksbury, Mass.). […] Filter inserts were immediately placed on top of 96-well receiver trays and placed at 37° C. in a humidified atmosphere of 5% CO2/95% air for 1 hour. Following the 1 hour incubation period the filter inserts were carefully removed and the migration of cells across the filter into the bottom chamber (receiver wells) was determined by measuring ATP levels using Cell TiterGlo 2.0, according to manufacturer's instructions (Promega; Madison, Wis.); luminescence was measured using a Cytation 3 plate reader (BioTek; Winooski, Vt.).

[5] = target: T1, human CXCR4; test: CXCR4/CXCL12 binding, HTRF format, single concentration (Example 23); parameters: host or cells: HEK293 (Tag-lite CXCR4 cells, frozen aliquots, transient expression); details: 15 nM CXCR4R fluorescent probe, 3 hours, HEK293 Tag-lite CXCR4 cells
Procedure, shortened: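 Tag-lite CXCR4 cells were exposed to peptide at 400 nM final with 15 nM (EC80) fluorescent CXCR4 probe for 3 h at room temperature. HTRF was read, and the 665/620 nm ratio ×10,000 measured probe bound to terbium-labelled receptor.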

T1 sequence (P61073 whole entry): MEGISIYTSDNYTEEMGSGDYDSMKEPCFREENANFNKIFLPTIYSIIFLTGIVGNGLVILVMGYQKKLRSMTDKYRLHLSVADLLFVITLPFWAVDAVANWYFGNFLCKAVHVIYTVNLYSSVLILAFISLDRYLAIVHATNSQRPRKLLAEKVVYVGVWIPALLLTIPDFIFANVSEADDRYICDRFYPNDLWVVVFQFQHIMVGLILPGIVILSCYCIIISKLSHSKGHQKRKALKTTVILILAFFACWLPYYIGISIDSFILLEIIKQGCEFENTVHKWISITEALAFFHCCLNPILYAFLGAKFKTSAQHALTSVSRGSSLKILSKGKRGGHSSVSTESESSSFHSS

Question: `CC(C)C[C@H](NC(=O)[C@H](CO)NC(=O)[C@H](CO)NC(=O)[C@H](CCCNC(=N)N)NC(=O)[C@@H](NC(=O)[C@H](CO)NC(=O)[C@H](Cc1c[nH]cn1)NC(=O)[C@H](Cc1c[nH]cn1)NC(=O)[C@H](Cc1ccccc1)NC(=O)[C@H](CCCNC(=N)N)NC(=O)[C@H](CCC(=O)O)NC(=O)[C@@H](N)CC(C)C)C(C)C)C(=O)N[C@@H](CCCNC(=N)N)C(=O)N1CCC[C@H]1C(=O)N[C@@H](Cc1ccc(O)cc1)C(=O)N[C@H](C(=O)N[C@@H](CCCCN)C(=O)O)[C@@H](C)O` [compound 54] (H-LERFHHSVRSSLRPYTK-OH; N-terminus and C-terminus assumed) was tested. Which “Percent Inhibition of CXCR4/CXCL12 Induced p-MEK (100 nM Test Article)” value [1] did it give?
Answer: 46%

Question: What about the “Percent Inhibition of CXCR4/CXCL12 Induced p-MEK (1 μM Test Article)” value [1] of the same compound?
Answer: 92%

Question: And the IC50 [2]?
Answer: 8 nM

Question: What about the IC50 [3] of the same compound?
Answer: 3 nM

Question: And the “Percent Inhibition of CXCL12 Mediated Migration (1.1 μM Test Article)” value (from here on “Percent Inhibition … (1.1 μM Test Article)”) [4]?
Answer: 54%

Question: What about the “Percent Inhibition of CXCR4/CXCL12 Binding (400 nM peptide)” value [5] of the same compound?
Answer: 79%

Question: `CC(C)C[C@H](NC(=O)[C@H](CO)NC(=O)[C@H](CO)NC(=O)[C@H](CCCNC(=N)N)NC(=O)[C@@H](NC(=O)[C@H](CO)NC(=O)[C@H](Cc1c[nH]cn1)NC(=O)[C@H](Cc1c[nH]cn1)NC(=O)[C@H](Cc1ccc(O)cc1)NC(=O)[C@H](CCCNC(=N)N)NC(=O)[C@H](CCC(=O)O)NC(=O)[C@@H](N)CC(C)C)C(C)C)C(=O)N[C@@H](CCCNC(=N)N)C(=O)N1CCC[C@H]1C(=O)N[C@@H](Cc1ccc(O)cc1)C(=O)N[C@@H](CO)C(=O)N[C@@H](CCCCN)C(=O)O` [compound 75] (H-LERYHHSVRSSLRPYSK-OH; N-terminus and C-terminus assumed) was tested. Which “Percent Inhibition of CXCR4/CXCL12 Induced p-MEK (100 nM Test Article)” value [1] did it give?
Answer: 60%

Question: What about the “Percent Inhibition of CXCR4/CXCL12 Induced p-MEK (1 μM Test Article)” value [1] of the same compound?
Answer: 100%

Question: What about the IC50 [2] of the same compound?
Answer: 11 nM

Question: And the IC50 [3]?
Answer: 4 nM

Question: What about the “Percent Inhibition … (1.1 μM Test Article)” value [4] of the same compound?
Answer: 81%

Question: What about the “Percent Inhibition of CXCR4/CXCL12 Binding (400 nM peptide)” value [5] of the same compound?
Answer: 81%

Question: How did the “Percent Inhibition of CXCR4/CXCL12 Induced p-MEK (100 nM Test Article)” value [1] turn out when `CC(C)C[C@H](NC(=O)[C@@H](NC(=O)[C@H](CO)NC(=O)[C@H](CCCNC(=N)N)NC(=O)[C@@H](NC(=O)[C@H](CO)NC(=O)[C@H](Cc1c[nH]cn1)NC(=O)[C@H](Cc1c[nH]cn1)NC(=O)[C@H](Cc1ccc(O)cc1)NC(=O)[C@H](CCCNC(=N)N)NC(=O)[C@H](CCC(=O)O)NC(=O)[C@@H](N)CC(C)C)C(C)C)[C@@H](C)O)C(=O)N[C@@H](CCCNC(=N)N)C(=O)N1CCC[C@H]1C(=O)N[C@@H](Cc1ccc(O)cc1)C(=O)N[C@H](C(=O)N[C@@H](CCCCN)C(=O)O)[C@@H](C)O` [compound 74] (H-LERYHHSVRSTLRPYTK-OH; N-terminus and C-terminus assumed) was run?
Answer: 48%

Question: And the “Percent Inhibition of CXCR4/CXCL12 Induced p-MEK (1 μM Test Article)” value [1]?
Answer: 93%

Question: And the IC50 [2]?
Answer: 6 nM

Question: What about the IC50 [3] of the same compound?
Answer: 5 nM

Question: What about the “Percent Inhibition … (1.1 μM Test Article)” value [4] of the same compound?
Answer: 61%

Question: What about the “Percent Inhibition of CXCR4/CXCL12 Binding (400 nM peptide)” value [5] of the same compound?
Answer: 88%

Question: What does the source list for `CC(C)C[C@H](NC(=O)[C@H](CO)NC(=O)[C@H](CO)NC(=O)[C@H](CCCNC(=N)N)NC(=O)[C@@H](NC(=O)[C@H](CO)NC(=O)[C@H](Cc1c[nH]cn1)NC(=O)[C@H](Cc1c[nH]cn1)NC(=O)[C@H](Cc1ccc(O)cc1)NC(=O)[C@H](CCCNC(=N)N)NC(=O)[C@H](CCC(=O)O)NC(=O)[C@@H](N)CC(C)C)C(C)C)C(=O)N[C@@H](CCCNC(=N)N)C(=O)NCC(=O)N[C@@H](Cc1ccc(O)cc1)C(=O)N[C@H](C(=O)N[C@@H](CCCCN)C(=O)O)[C@@H](C)O` [compound 80] (H-LERYHHSVRSSLRGYTK-OH; N-terminus and C-terminus assumed)?
Answer: Percent Inhibition of CXCR4/CXCL12 Induced p-MEK (100 nM Test Article) [1]: 52%; Percent Inhibition of CXCR4/CXCL12 Induced p-MEK (1 μM Test Article) [1]: 96%; IC50 [2]: 6 nM; IC50 [3]: 4 nM; Percent Inhibition of CXCL12 Mediated Migration (1.1 μM Test Article) [4]: 71%; Percent Inhibition of CXCR4/CXCL12 Binding (400 nM peptide) [5]: 88%

Question: Which results are given for `CC(C)C[C@H](NC(=O)[C@H](CO)NC(=O)[C@H](CO)NC(=O)[C@H](CCCNC(=N)N)NC(=O)[C@@H](NC(=O)[C@@H](NC(=O)[C@H](Cc1c[nH]cn1)NC(=O)[C@H](Cc1c[nH]cn1)NC(=O)[C@H](Cc1ccc(O)cc1)NC(=O)[C@H](CCCNC(=N)N)NC(=O)[C@H](CCCNC(=N)N)NC(=O)[C@@H](N)CC(C)C)[C@@H](C)O)C(C)C)C(=O)N[C@@H](CCCNC(=N)N)C(=O)N1CCC[C@H]1C(=O)N[C@@H](Cc1ccc(O)cc1)C(=O)N[C@H](C(=O)N[C@@H](CCCCN)C(=O)O)[C@@H](C)O` [compound 38] (H-LRRYHHTVRSSLRPYTK-OH; N-terminus and C-terminus assumed)?
Answer: Percent Inhibition of CXCR4/CXCL12 Induced p-MEK (100 nM Test Article) [1]: 51%; Percent Inhibition of CXCR4/CXCL12 Induced p-MEK (1 μM Test Article) [1]: 96%; IC50 [2]: 175 nM; IC50 [3]: 3 nM; Percent Inhibition of CXCR4/CXCL12 Binding (400 nM peptide) [5]: 12%

Question: Which results are given for `CC(C)C[C@H](NC(=O)[C@H](CO)NC(=O)[C@H](CO)NC(=O)[C@H](CCCNC(=N)N)NC(=O)[C@@H](NC(=O)[C@H](CO)NC(=O)[C@H](Cc1c[nH]cn1)NC(=O)[C@H](Cc1c[nH]cn1)NC(=O)[C@H](Cc1ccc(O)cc1)NC(=O)[C@H](CCCNC(=N)N)NC(=O)[C@H](CC(=O)O)NC(=O)[C@@H](N)CC(C)C)C(C)C)C(=O)N[C@@H](CCCNC(=N)N)C(=O)N1CCC[C@H]1C(=O)N[C@@H](Cc1ccc(O)cc1)C(=O)N[C@H](C(=O)N[C@@H](CCCCN)C(=O)O)[C@@H](C)O` [compound 7] (H-LDRYHHSVRSSLRPYTK-OH; N-terminus and C-terminus assumed)?
Answer: Percent Inhibition of CXCR4/CXCL12 Induced p-MEK (100 nM Test Article) [1]: 60%; Percent Inhibition of CXCR4/CXCL12 Induced p-MEK (1 μM Test Article) [1]: 96%; IC50 [2]: 5 nM; Percent Inhibition of CXCL12 Mediated Migration (1.1 μM Test Article) [4]: 52%; Percent Inhibition of CXCR4/CXCL12 Binding (400 nM peptide) [5]: 89%

Question: How did the “Percent Inhibition of CXCR4/CXCL12 Induced p-MEK (100 nM Test Article)” value [1] turn out when `CC(C)C[C@H](NC(=O)[C@H](CO)NC(=O)[C@H](CO)NC(=O)[C@H](CCCNC(=N)N)NC(=O)[C@@H](C)NC(=O)[C@H](CO)NC(=O)[C@H](Cc1c[nH]cn1)NC(=O)[C@H](Cc1c[nH]cn1)NC(=O)[C@H](Cc1ccc(O)cc1)NC(=O)[C@H](CCCNC(=N)N)NC(=O)[C@H](CCC(=O)O)NC(=O)[C@@H](N)CC(C)C)C(=O)N[C@@H](CCCNC(=N)N)C(=O)N1CCC[C@H]1C(=O)N[C@@H](Cc1ccc(O)cc1)C(=O)N[C@H](C(=O)N[C@@H](CCCCN)C(N)=O)[C@@H](C)O` [compound 57] (H-LERYHHS[dA]RSSLRPYTK-NH2; N-terminus assumed) was run?
Answer: 10%

Question: What about the “Percent Inhibition of CXCR4/CXCL12 Induced p-MEK (1 μM Test Article)” value [1] of the same compound?
Answer: 72%

Question: And the IC50 [2]?
Answer: 7 nM

Question: What about the IC50 [3] of the same compound?
Answer: 33 nM

Question: And the “Percent Inhibition … (1.1 μM Test Article)” value [4]?
Answer: 30%

Question: And the “Percent Inhibition of CXCR4/CXCL12 Binding (400 nM peptide)” value [5]?
Answer: 77%

Question: Which “Percent Inhibition of CXCR4/CXCL12 Induced p-MEK (100 nM Test Article)” value [1] does the source give for `CC(C)C[C@H](NC(=O)[C@H](CO)NC(=O)[C@@H](NC(=O)[C@H](CCCNC(=N)N)NC(=O)[C@@H](NC(=O)[C@H](CO)NC(=O)[C@H](Cc1c[nH]cn1)NC(=O)[C@H](Cc1c[nH]cn1)NC(=O)[C@H](Cc1ccc(O)cc1)NC(=O)[C@H](CCCNC(=N)N)NC(=O)[C@H](CCC(=O)O)NC(=O)[C@@H](N)CC(C)C)C(C)C)[C@@H](C)O)C(=O)N[C@@H](CCCNC(=N)N)C(=O)N1CCC[C@H]1C(=O)N[C@@H](Cc1ccc(O)cc1)C(=O)N[C@H](C(=O)N[C@@H](CCCCN)C(=O)O)[C@@H](C)O` [compound 73] (H-LERYHHSVRTSLRPYTK-OH; N-terminus and C-terminus assumed) here?
Answer: 47%

Question: And the “Percent Inhibition of CXCR4/CXCL12 Induced p-MEK (1 μM Test Article)” value [1]?
Answer: 96%

Question: And the IC50 [3]?
Answer: 4 nM

Question: And the “Percent Inhibition … (1.1 μM Test Article)” value [4]?
Answer: 82%

Question: And the “Percent Inhibition of CXCR4/CXCL12 Binding (400 nM peptide)” value [5]?
Answer: 87%
